According to ChEMBL document CHEMBL5113409, “Design and synthesis of proteolysis targeting chimeras (PROTACs) as an EGFR degrader based on CO-1686” (Eur J Med Chem, 2022):
Active and inactive are the calls of the source. The calls are words filed in the database; no cut-off is given here.

Assays:
PC-9 = assay: Anti-proliferative activity against human PC-9 cells assessed as reduction in cell proliferation incubated for 72 hrs by MTT assay; type: functional, cell-based; details: PC-9, 72 h
NCI-H1975 [1] = assay: Induction of cell cycle arrest in human NCI-H1975 cells assessed as accumulation at G0/G1 phase at 0.5 uM incubated for 48 hrs by propidium iodide staining based flow cytometry (reference value: 59.18%); type: functional
A549 = assay: Anti-proliferative activity against human A549 cells assessed as reduction in cell proliferation incubated for 72 hrs by MTT assay; type: functional, cell-based; details: A549, 72 h
NCI-H1975 [2] = assay: Induction of cell cycle arrest in human NCI-H1975 cells assessed as accumulation at S phase at 0.25 uM incubated for 48 hrs by propidium iodide staining based flow cytometry (reference value: 37.13%); type: functional
NCI-H1975 [3] = assay: Induction of apoptosis in human NCI-H1975 cells assessed as necrosis cells level at 0.5 uM incubated for 48 hrs by Annexin-V/propidium iodide staining based biparametric cytofluorometric assay (reference value: 2.46%); type: functional
NCI-H1975 [4] = assay: Induction of apoptosis in human NCI-H1975 cells assessed as late apoptosis cells level at 0.25 uM incubated for 48 hrs by Annexin-V/propidium iodide staining based biparametric cytofluorometric assay (reference value: 2.46%); type: functional
NCI-H1975 [5] = assay: Anti-proliferative activity against human NCI-H1975 cells assessed as reduction in cell proliferation incubated for 72 hrs by MTT assay; type: functional, cell-based; details: NCI-H1975, 72 h
NCI-H1975 [6] = assay: Induction of apoptosis in human NCI-H1975 cells assessed as viable cells level at 0.5 uM incubated for 48 hrs by Annexin-V/propidium iodide staining based biparametric cytofluorometric assay (reference value: 93.9%); type: functional
NCI-H1975 [7] = assay: Induction of cell cycle arrest in human NCI-H1975 cells assessed as accumulation at G2/M phase at 0.5 uM incubated for 48 hrs by propidium iodide staining based flow cytometry (reference value: 3.68%); type: functional
NCI-H1975 [8] = assay: Induction of apoptosis in human NCI-H1975 cells assessed as viable cells level at 1 uM incubated for 48 hrs by Annexin-V/propidium iodide staining based biparametric cytofluorometric assay (reference value: 93.9%); type: functional
[9] = system: Protein cereblon/Epidermal growth factor receptor (Homo sapiens), P00533+Q96SW2 [L858R,T790M]; assay: Protac activity at CRBN/EGFR L858R/T790M mutant in human NCI-H1975 cells assessed as L858R/T790M mutant degradation at 3 uM incubated for 48 hrs by Western blot analysis; type: cell-based
NCI-H1975 [10] = assay: Induction of apoptosis in human NCI-H1975 cells assessed as early apoptosis cells level at 0.5 uM incubated for 48 hrs by Annexin-V/propidium iodide staining based biparametric cytofluorometric assay (reference value: 2.26%); type: functional
NCI-H1975 [11] = assay: Induction of cell cycle arrest in human NCI-H1975 cells assessed as accumulation at S phase at 0.5 uM incubated for 48 hrs by propidium iodide staining based flow cytometry (reference value: 37.13%); type: functional
[12] = target: Epidermal growth factor receptor (Homo sapiens, UniProt P00533, L858R/T790M); assay: Inhibition of EGFR L858R/T790M mutant (unknown origin) incubated for 35 mins by HTRF KinEASE-TK assay
NCI-H1975 [13] = assay: Induction of apoptosis in human NCI-H1975 cells assessed as late apoptosis cells level at 0.5 uM incubated for 48 hrs by Annexin-V/propidium iodide staining based biparametric cytofluorometric assay (reference value: 2.46%); type: functional
NCI-H1975 [14] = assay: Induction of cell cycle arrest in human NCI-H1975 cells assessed as accumulation at G2/M phase at 1 uM incubated for 48 hrs by propidium iodide staining based flow cytometry (reference value: 3.68%); type: functional
[15] = system: Protein cereblon/Epidermal growth factor receptor (Homo sapiens), P00533+Q96SW2 [L858R,T790M]; assay: Protac activity at CRBN/EGFR L858R/T790M mutant in human NCI-H1975 cells assessed as L858R/T790M mutant degradation incubated for 48 hrs by Western blot analysis relative to untreated control; type: cell-based
NCI-H1975 [16] = assay: Induction of cell cycle arrest in human NCI-H1975 cells assessed as accumulation at G2/M phase at 0.25 uM incubated for 48 hrs by propidium iodide staining based flow cytometry (reference value: 3.68%); type: functional
NCI-H1975 [17] = assay: Induction of apoptosis in human NCI-H1975 cells assessed as viable cells level at 0.25 uM incubated for 48 hrs by Annexin-V/propidium iodide staining based biparametric cytofluorometric assay (reference value: 93.9%); type: functional
[18] = target: Epidermal growth factor receptor (Homo sapiens, UniProt P00533); assay: Inhibition of wild type EGFR (unknown origin) incubated for 10 mins by HTRF KinEASE-TK assay
NCI-H1975 [19] = assay: Induction of apoptosis in human NCI-H1975 cells incubated for 48 hrs by Annexin-V/propidium iodide staining based biparametric cytofluorometric assay; type: functional, cell-based; details: DDE = dose-dependent effect
NCI-H1975 [20] = assay: Induction of apoptosis in human NCI-H1975 cells assessed as early apoptosis cells level at 0.25 uM incubated for 48 hrs by Annexin-V/propidium iodide staining based biparametric cytofluorometric assay (reference value: 2.26%); type: functional
NCI-H1975 [21] = assay: Induction of cell cycle arrest in human NCI-H1975 cells assessed as accumulation at S phase at 1 uM incubated for 48 hrs by propidium iodide staining based flow cytometry (reference value: 37.13%); type: functional
[22] = target: Protein cereblon/Epidermal growth factor receptor (Homo sapiens, UniProt P00533+Q96SW2, T790M/L858R); assay: (§1) Protac activity at CRBN/EGFR L858R/T790M mutant in human NCI-H1975 cells assessed as L858R/T790M mutant degradation incubated for 48 hrs by Western blot analysis; type: cell-based
[23] = system: Protein cereblon/Epidermal growth factor receptor (Homo sapiens), P00533+Q96SW2 [L858R,T790M]; assay: as §1; type: cell-based; details: DDE = dose-dependent effect
NCI-H1975 [24] = assay: Induction of cell cycle arrest in human NCI-H1975 cells assessed as accumulation at G0/G1 phase at 1 uM incubated for 48 hrs by propidium iodide staining based flow cytometry (reference value: 59.18%); type: functional
Homo sapiens = organism: Homo sapiens; assay: Selectivity index, ratio of IC50 for wild type EGFR (unknown origin) to IC50 for Protein cereblon/Epidermal growth factor receptor L858R/T790M mutant
NCI-H1975 [25] = assay: Induction of cell cycle arrest in human NCI-H1975 cells assessed as accumulation at G0/G1 phase at 0.25 uM incubated for 48 hrs by propidium iodide staining based flow cytometry (reference value: 59.18%); type: functional
NCI-H1975 [26] = assay: Induction of apoptosis in human NCI-H1975 cells assessed as early apoptosis cells level at 1 uM incubated for 48 hrs by Annexin-V/propidium iodide staining based biparametric cytofluorometric assay (reference value: 2.26%); type: functional
NCI-H1975 [27] = assay: Induction of apoptosis in human NCI-H1975 cells assessed as late apoptosis cells level at 1 uM incubated for 48 hrs by Annexin-V/propidium iodide staining based biparametric cytofluorometric assay (reference value: 2.46%); type: functional
NCI-H1975 [28] = assay: Induction of apoptosis in human NCI-H1975 cells assessed as necrosis cells level at 1 uM incubated for 48 hrs by Annexin-V/propidium iodide staining based biparametric cytofluorometric assay (reference value: 2.46%); type: functional
[29] = system: Protein cereblon/Epidermal growth factor receptor (Homo sapiens), P00533+Q96SW2 [L858R,T790M]; assay: Protac activity at CRBN/EGFR L858R/T790M mutant in human NCI-H1975 cells assessed as L858R/T790M mutant degradation at 0.3 uM incubated up to 36 hrs by Western blot analysis; type: cell-based; details: TDE = time-dependent effect

How did the IC50 (PC-9) turn out when `C=CC(=O)Nc1cccc(Nc2nc(Nc3ccc(N4CCN(CC(=O)NCCNc5cccc6c5C(=O)N(C5CCC(=O)NC5=O)C6=O)CC4)cc3OC)ncc2C(F)(F)F)c1` (configuration not stated) was run?
Its IC50 is 0.75 µM.

What about the Activity (NCI-H1975 [1]) of the same compound?
Its Activity is 73.71%.

What about the IC50 (A549) of the same compound?
The IC50 was greater than 100 µM.

What about the Activity (NCI-H1975 [2]) of the same compound?
The Activity was 23.89%.

What about the Activity (NCI-H1975 [3]) of the same compound?
Its Activity is 2.22%.

And the Activity (NCI-H1975 [4])?
The Activity was 6.07%.

And the IC50 (NCI-H1975 [5])?
The IC50 was 0.24 µM.

And the Activity (NCI-H1975 [6])?
The Activity was 73.3%.

And the Activity (NCI-H1975 [7])?
The Activity was 3.72%.

What about the Activity (NCI-H1975 [8]) of the same compound?
Its Activity is 58%.

What about the Activity [9] of the same compound?
Its Activity is “Active”.

And the Activity (NCI-H1975 [10])?
The Activity was 6.16%.

What about the Activity (NCI-H1975 [11]) of the same compound?
The Activity was 22.57%.

And the IC50 [12]?
Its IC50 is 0.0431 µM.

And the Activity (NCI-H1975 [13])?
Its Activity is 18.3%.

What about the Activity (NCI-H1975 [14]) of the same compound?
Its Activity is 4.8%.

And the Emax [15]?
The Emax was 83%.

And the Activity (NCI-H1975 [16])?
Its Activity is 4.01%.

And the Activity (NCI-H1975 [17])?
Its Activity is 89.7%.

What about the IC50 [18] of the same compound?
The IC50 was 0.839 µM.

And the Activity (NCI-H1975 [19])?
Its Activity is “Dde”.

And the Activity (NCI-H1975 [20])?
The Activity was 2.78%.

What about the Activity (NCI-H1975 [21]) of the same compound?
The Activity was 17.39%.

And the DC50 [22]?
Its DC50 is 0.356 µM.

And the Activity [23]?
The Activity was “Dde”.

What about the Activity (NCI-H1975 [24]) of the same compound?
Its Activity is 77.8%.

What about the Ratio IC50 (Homo sapiens) of the same compound?
The Ratio IC50 was 19.

And the Activity (NCI-H1975 [25])?
The Activity was 72.1%.

And the Activity (NCI-H1975 [26])?
Its Activity is 6.63%.

What about the Activity (NCI-H1975 [27]) of the same compound?
The Activity was 39.9%.

And the Activity (NCI-H1975 [28])?
Its Activity is 4.71%.

What about the Activity [29] of the same compound?
Its Activity is “Tde”.
